Laboratory results taken from patent US12285431B2, “Treatment of Rb-negative tumors using topoisomerase inhibitors in combination with cyclin dependent kinase 4/6 inhibitors” (G1 Therapeutics, Inc., priority 2014, dated 2025).

Tests used:
[1] = tested on: MCF7 (breast adenocarcinoma, Rb-positive); test: Cellular proliferation assay (CellTiter-Glo), MCF7; format: cell-based; settings: Homo sapiens, MCF7, 144 h, cell viability after six days
Experimental: (§1) Further cellular proliferation assays were conducted using the following cancer cell lines: MCF7 (breast adenocarcinoma—Rb-positive), ZR-75-1 (breast ductal carcinoma—Rb-positive), H69 (human small cell lung cancer—Rb-negative) cells, or A2058 (human metastatic melanoma cells—Rb-negative). These cells were seeded in Costar (Tewksbury, Massachusetts) 3093 96 well tissue culture treated white walled/clear bottom plates. Cells were treated with the compounds of Table 1 as nine point dose response dilution series from 10 uM to 1 nM. Cells were exposed to compounds and then cell viability was determined after either four (H69) or six (MCF7, ZR75-1, A2058) days as indicated using the CellTiter-Glo® luminescent cell viability assay (CTG; Promega, Madison, Wisconsin, United States of America) following the manufacturer's recommendations. Plates were read on BioTek (Winooski, Vermont) Syngergy2 multi-mode plate reader. The Relative Light Units (RLU) were plotted as a result of variable molar concentration and data was analyzed using Graphpad (LaJolla, California) Prism 5 statistical software to determine the EC50 for each compound.

[2] = tested on: ZR-75-1 (breast ductal carcinoma, Rb-positive); test: Cellular proliferation assay (CellTiter-Glo), ZR-75-1; format: cell-based; settings: Homo sapiens, ZR-75-1, 144 h, cell viability after six days, read-out: ZR75-1 Cellular EC50
Experimental: as §1

[3] = tested on: H69 (human small cell lung cancer, Rb-negative) cells; test: Cellular proliferation assay (CellTiter-Glo), H69; format: cell-based; settings: NCI-H69, 96 h, cell viability after four days
Experimental: as §1

[4] = tested on: A2058 (human metastatic melanoma cells, Rb-negative); test: Cellular proliferation assay (CellTiter-Glo), A2058; format: cell-based; settings: A2058, 144 h, cell viability after six days
Experimental: as §1

CDK4/CyclinD1 = CDK4/CyclinD1 (Homo sapiens, UniProt P11802); test: CDK4/cyclinD1 kinase assay (Nanosyn, Caliper microfluidic kinase detection); format: biochemical; settings: Table 2; 12-point dose-response, ATP at Km (200 μM), 10 hr; read-out: CDK4/CycD1 IC50
Experimental: The assays were performed using microfluidic kinase detection technology (Caliper Assay Platform). The compounds were tested in 12-point dose-response format in singlicate at Km for ATP. Phosphoacceptor substrate peptide concentration used was 1 μM for all assays and Staurosporine was used as the reference compound for all assays. Specifics of each assay are as described below:
CDK4/CyclinD1: Enzyme concentration: 1 nM; ATP concentration: 200 μM; Incubation time: 10 hr.

HS68 cells = test: G1 arrest (cellular G1 and S-phase) assay, propidium iodide flow cytometry; format: cell-based, human; settings: Homo sapiens, Hs68, HS68 cells
Experimental: HS68 cells (human skin fibroblast cell line (Rb-positive)) were stained with propidium iodide staining solution and run on Dako Cyan Flow Cytometer. The fraction of cells in G0-G1 DNA cell cycle versus the fraction in S-phase DNA cell cycle was determined using FlowJo 7.2.2 analysis.
The compounds listed in Table 1 were tested for their ability to arrest HS68 cells at the G1 phase of the cell cycle.

CDK4/CyclinD1, sequence (P11802 whole entry, species assumed): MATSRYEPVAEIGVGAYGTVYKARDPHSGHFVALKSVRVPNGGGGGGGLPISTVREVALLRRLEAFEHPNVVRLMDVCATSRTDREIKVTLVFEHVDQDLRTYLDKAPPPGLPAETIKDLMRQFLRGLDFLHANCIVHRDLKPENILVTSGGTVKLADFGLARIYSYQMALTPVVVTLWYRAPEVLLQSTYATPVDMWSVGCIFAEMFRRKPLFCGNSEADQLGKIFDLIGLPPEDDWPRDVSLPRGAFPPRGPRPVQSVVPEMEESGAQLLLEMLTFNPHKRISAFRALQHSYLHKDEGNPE
CDK4/CyclinD1, sequence (P24385 whole entry partner, species assumed): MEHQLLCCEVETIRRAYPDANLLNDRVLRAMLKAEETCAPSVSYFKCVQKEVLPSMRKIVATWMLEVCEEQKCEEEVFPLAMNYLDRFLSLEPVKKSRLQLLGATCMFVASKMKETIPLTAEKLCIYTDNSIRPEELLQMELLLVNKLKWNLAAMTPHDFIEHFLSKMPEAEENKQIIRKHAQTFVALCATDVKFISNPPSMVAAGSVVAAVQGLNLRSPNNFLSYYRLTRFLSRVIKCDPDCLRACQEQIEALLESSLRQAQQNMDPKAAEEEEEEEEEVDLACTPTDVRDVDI

SMILES | EC50 [1] [nM] | EC50 [2] [nM] | EC50 [3] [nM] | EC50 [4] [nM] | IC50 (CDK4/CyclinD1) [nM] | EC50 (HS68 cells) [nM]
C[C@@H]1CN(c2ccc(Nc3ncc4cc5n(c4n3)C3(CCCCC3)CNC5=O)nc2)C[C@H](C)N1C[C@@H](C)O [MM] | 73 | 77 | > 3000 | > 3000 | 1.8 | 100
C[C@@H]1CN(c2ccc(Nc3ncc4cc5n(c4n3)C3(CCCCC3)CNC5=O)nc2)C[C@H](C)N1 [P] | 60 | 43 | > 3000 | > 3000 | 3.3 | 30
CN(C)C1CCN(c2ccc(Nc3ncc4cc5n(c4n3)C3(CCCCC3)CNC5=O)nc2)CC1 [O] | 56 | 29 | > 3000 | 2670 | – | 40
O=C1NCC2(CCCCC2)n2c1cc1cnc(Nc3ccc(C(=O)N4CCN(C5CCC5)CC4)cn3)nc12 [LL] | 96 | – | > 3000 | > 3000 | 2 | 125
O=C1NCC2(CCCCC2)n2c1cc1cnc(Nc3ccc(N4CCC(N5CCCCC5)CC4)cn3)nc12 [N] | 28 | 24 | > 3000 | 1440 | 1 | 25
O=C1NCC2(CCCC2)n2c1cc1cnc(Nc3ccc(C(=O)N4CCN(CC5CC5)CC4)cn3)nc12 [OOO] | 138 | – | > 3000 | > 3000 | 2.4 | 200
CC(C)C1CN(c2ccc(Nc3ncc4cc5n(c4n3)C3(CCCCC3)CNC5=O)nc2)CCN1 (centres unmarked) [E] | 53 | 62 | 2580 | 1370 | 1 | 75
CCOCCN1CCN(c2ccc(Nc3ncc4cc5n(c4n3)C3(CCCC3)CNC5=O)nc2)CC1 [MMM] | 134 | 141 | > 3000 | > 3000 | – | 200
CC(C)N1CCN(Cc2ccc(Nc3ncc4cc5n(c4n3)C3(CCCCC3)CNC5=O)nc2)CC1 [EE] | 216 | 203 | – | – | 3.8 | 125
C[C@H](O)CN1CCN(c2ccc(Nc3ncc4cc5n(c4n3)C3(CCCCC3)CNC5=O)nc2)C[C@@H]1C [C] | 88 | 73 | – | – | 1.4 | 95
C[C@H]1CN(c2ccc(Nc3ncc4cc5n(c4n3)C3(CCCCC3)CNC5=O)nc2)CCN1CC1CC1 [B] | 201 | 245 | – | – | 0.4 | 90
C[C@@H]1CN(c2ccc(Nc3ncc4cc5n(c4n3)C3(CCCCC3)CNC5=O)nc2)CCN1 [V] | 50 | 29 | > 3000 | 1350 | 2.9 | 70
C[C@H](O)CN1CCN(c2ccc(Nc3ncc4cc5n(c4n3)C3(CCCCC3)CNC5=O)nc2)CC1 [A] | 75 | 44 | > 3000 | – | 4.2 | 110
CC(C)N1CCN(c2ccc(Nc3ncc4cc5n(c4n3)C3(CCCCC3)CNC5=O)nc2)C[C@H]1C [L] | 506 | – | 2160 | > 3000 | – | 65
CN(C)C1CCN(c2ccc(Nc3ncc4cc5n(c4n3)C3(CCCC3)CNC5=O)nc2)CC1 [YY] | 257 | 581 | – | – | 4.6 | 175
C[C@H]1CN(c2ccc(Nc3ncc4cc5n(c4n3)C3(CCCCC3)CNC5=O)nc2)CCN1 [KK] | 333 | – | 2420 | 1380 | 2.3 | 22
CCN(CC)C1CCN(c2ccc(Nc3ncc4cc5n(c4n3)C3(CCCCC3)CNC5=O)nc2)C1 (centres unmarked) [QQ] | – | – | > 3000 | > 3000 | 4.1 | –

SMILES | EC50 [1] [nM] | EC50 [2] [nM] | EC50 [3] [nM] | EC50 [4] [nM] | IC50 (CDK4/CyclinD1) [nM] | EC50 (HS68 cells) [nM]
CCC(C)CN1CCN(c2ccc(Nc3ncc4cc5n(c4n3)C3(CCCC3)CNC5=O)nc2)CC1 (centres unmarked) [AAA] | 320 | – | > 3000 | > 3000 | 2.3 | –
CC(C)(O)CN1CCN(c2ccc(Nc3ncc4cc5n(c4n3)C3(CCCC3)CNC5=O)nc2)CC1 [EEE] | 453 | – | > 3000 | > 3000 | – | 250
C[C@H](O)CN1[C@H](C)CN(c2ccc(Nc3ncc4cc5n(c4n3)C3(CCCCC3)CNC5=O)nc2)C[C@@H]1C [Z] | 141 | 54 | – | – | 3.2 | 110
CC(C)N1CCN(c2ccc(Nc3ncc4cc5n(c4n3)C3(CCCCC3)CNC5=O)nc2)CC1C (centres unmarked) [PP] | 164 | 66 | – | – | 3.1 | 100
CCN(CC)C1CCN(C2CCN(c3ccc(Nc4ncc5cc6n(c5n4)C4(CCCCC4)CNC6=O)nc3)CC2)C1 (centres unmarked) [RR] | 72 | – | 2890 | 1620 | 1.2 | 90
CC1CN(c2ccc(Nc3ncc4cc5n(c4n3)C3(CCCCC3)CNC5=O)nc2)CCN1CC(C)(C)O (centres unmarked) [W] | 294 | – | > 3000 | > 3000 | 2.7 | 160
O=C1NCC2(CCCCC2)n2c1cc1cnc(Nc3ccc(N4CCC(N5CCC(C(F)(F)F)CC5)CC4)cn3)nc12 [X] | – | – | > 3000 | > 3000 | 0.9 | 65
CC(C)N1CCN(c2ccc(Nc3ncc4cc5n(c4n3)C3(CCCCC3)CNC5=O)nc2)C[C@@H]1C [AA] | 47 | 47 | > 3000 | – | 0.5 | 70
C[C@@H](O)CN1CCN(c2ccc(Nc3ncc4cc5n(c4n3)C3(CCCCC3)CNC5=O)nc2)CC1 [S] | 76 | – | > 3000 | > 3000 | – | 150
CCN1[C@H](C)CN(c2ccc(Nc3ncc4cc5n(c4n3)C3(CCCCC3)CNC5=O)nc2)C[C@@H]1C [FF] | 140 | – | – | – | – | 80
CCN(CC)C1CCN(C(=O)c2ccc(Nc3ncc4cc5n(c4n3)C3(CCCCC3)CNC5=O)nc2)C1 (centres unmarked) [JJ] | 122 | – | > 3000 | > 3000 | 1.4 | 90
CC1CCN(C2CCN(c3ccc(Nc4ncc5cc6n(c5n4)C4(CCCCC4)CNC6=O)nc3)CC2)C1 (centres unmarked) [K] | 43 | – | > 3000 | 1790 | 1 | 28
C[C@@H]1CN(c2ccc(Nc3ncc4cc5n(c4n3)C3(CCCCC3)CNC5=O)nc2)CCN1C[C@@H](C)O [J] | 70 | 82 | > 3000 | > 3000 | – | 110
CC1CN(c2ccc(Nc3ncc4cc5n(c4n3)C3(CCCCC3)CNC5=O)nc2)CC(C)N1CC1CC1 (centres unmarked) [OO] | 120 | 229 | > 3000 | > 3000 | – | 95
CC1CN(c2ccc(Nc3ncc4cc5n(c4n3)C3(CCCC3)CNC5=O)nc2)CCN1CC1CC1 (centres unmarked) [NNN] | – | – | – | – | 1.4 | 210
CC1(C)CN(c2ccc(Nc3ncc4cc5n(c4n3)C3(CCCCC3)CNC5=O)nc2)CCN1C1CC1 [BB] | – | – | 2940 | 1640 | 0.8 | 75
O=C1NCC2(CCCCC2)n2c1cc1cnc(Nc3ccc(N4CCN(C5CCC5)CC4)cn3)nc12 [F] | – | – | – | – | 1.5 | 175
